According to ChEMBL document CHEMBL1201862, “PubChem BioAssay data set” (2004):
The source made the active and inactive calls.

Legend:
[1] = target: T1, Methionyl-tRNA synthetase, putative (Trypanosoma brucei brucei, UniProt Q38C91); type: functional, Trypanosoma brucei brucei strain 927/4 GUTat10.1
T1 sequence (Q38C91 whole entry): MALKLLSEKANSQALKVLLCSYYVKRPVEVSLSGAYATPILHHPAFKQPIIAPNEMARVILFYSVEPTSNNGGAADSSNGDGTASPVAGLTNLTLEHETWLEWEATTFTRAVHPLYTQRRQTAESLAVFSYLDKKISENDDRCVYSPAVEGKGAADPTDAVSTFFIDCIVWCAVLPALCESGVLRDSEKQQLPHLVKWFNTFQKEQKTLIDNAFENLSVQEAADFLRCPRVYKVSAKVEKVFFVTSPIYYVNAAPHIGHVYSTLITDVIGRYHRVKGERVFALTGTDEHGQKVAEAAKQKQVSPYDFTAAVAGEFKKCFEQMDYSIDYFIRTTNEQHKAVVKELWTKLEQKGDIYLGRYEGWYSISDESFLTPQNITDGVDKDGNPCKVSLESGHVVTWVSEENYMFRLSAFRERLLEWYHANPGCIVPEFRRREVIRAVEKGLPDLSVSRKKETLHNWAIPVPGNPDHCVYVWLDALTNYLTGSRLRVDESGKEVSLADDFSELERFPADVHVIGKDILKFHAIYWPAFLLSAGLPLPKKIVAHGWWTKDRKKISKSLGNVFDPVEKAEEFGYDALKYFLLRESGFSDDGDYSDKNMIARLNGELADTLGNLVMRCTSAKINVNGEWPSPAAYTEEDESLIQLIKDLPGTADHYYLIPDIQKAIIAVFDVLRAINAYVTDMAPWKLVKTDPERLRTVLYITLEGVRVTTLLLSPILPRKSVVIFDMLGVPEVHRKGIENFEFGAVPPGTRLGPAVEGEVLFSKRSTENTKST

[2] = target: T1, Methionyl-tRNA synthetase, putative; type: functional, Trypanosoma brucei brucei strain 927/4 GUTat10.1; remark: listed apart in the source
[3] = Counterscreen for inhibitors of Trypanosoma brucei methionyl tRNA synthetase (MetRS): Luminescence-based cell-based high throughput dose response assay to identify compounds that are cytotoxic to Jurkat human T lymphocyte cells.; type: functional
[4] = target: T2, Ubiquitin-conjugating enzyme E2 N (Homo sapiens, UniProt P61088); type: functional
T2 sequence (P61088 whole entry): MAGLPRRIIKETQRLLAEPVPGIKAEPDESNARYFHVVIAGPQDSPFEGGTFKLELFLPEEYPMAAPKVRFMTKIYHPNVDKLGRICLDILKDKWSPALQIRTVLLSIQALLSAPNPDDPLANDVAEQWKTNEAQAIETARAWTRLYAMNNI

Bcl-2-related protein A1 = target: T3, Bcl-2-related protein A1 (Mus musculus, UniProt Q07440); type: functional;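 further: confirmatory dose–response counterscreen on Bfl-1, used to check hits from a UBC13 polyubiquitin inhibitor campaign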
T3 sequence (Q07440 whole entry): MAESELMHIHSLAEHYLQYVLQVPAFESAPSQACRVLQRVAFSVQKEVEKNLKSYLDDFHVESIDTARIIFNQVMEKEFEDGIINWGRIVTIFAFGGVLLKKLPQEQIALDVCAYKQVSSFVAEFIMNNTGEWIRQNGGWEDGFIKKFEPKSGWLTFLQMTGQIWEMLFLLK

[5] = target: T2, Ubiquitin-conjugating enzyme E2 N; type: functional; remark: listed apart in the source
[6] = target: DNA repair protein RAD52 homolog (Homo sapiens, UniProt P43351); type: functional, biochemical
Sequence of DNA repair protein RAD52 homolog (P43351 whole entry, the tested form may be a part): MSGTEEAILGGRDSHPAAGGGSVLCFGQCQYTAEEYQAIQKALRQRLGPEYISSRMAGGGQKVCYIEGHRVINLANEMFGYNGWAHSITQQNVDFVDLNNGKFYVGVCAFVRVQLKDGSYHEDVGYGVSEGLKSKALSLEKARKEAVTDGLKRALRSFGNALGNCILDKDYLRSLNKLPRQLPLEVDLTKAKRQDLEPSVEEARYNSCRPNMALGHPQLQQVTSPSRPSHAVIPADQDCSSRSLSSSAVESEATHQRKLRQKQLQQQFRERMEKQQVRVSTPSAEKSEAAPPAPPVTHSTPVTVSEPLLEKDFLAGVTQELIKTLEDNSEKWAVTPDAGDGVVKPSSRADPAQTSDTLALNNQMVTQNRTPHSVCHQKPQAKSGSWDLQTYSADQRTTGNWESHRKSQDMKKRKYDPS

[7] = CEM21 lymphoblast cell cytotoxicity, dose response, cytotoxicity control for viral fusion inhibitor project, CellTiter-Glo luminescence, cherry-picked (AID 652042); type: functional, cell-based;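 further: potency for signal decrease meaning cytotoxicity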
[8] = inhibitors of HIV Env-driven cell fusion, dose response, cherry-pick (AID 652057); type: functional, cell-based
[9] = inhibitors of clade B AD8 Env fusion, dose response, cell-based, cherry-pick (AID 652062); type: functional;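 further: luciferase signal from cell-cell fusion driven by HIV-1 clade B AD8 Env; potency is for inhibitors of fusion seen as a drop in luminescence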
[10] = ZM109 Env clade C HIV-1 fusion inhibitors, dose response, HeLa effector, CEM target cells, luciferase, cherry-pick (AID 652058); type: functional, cell-based
[11] = target: T4, Corticotropin-releasing factor receptor 2/Corticotropin-releasing factor-binding protein (Homo sapiens, UniProt P24387+Q13324); assay: Dose Response confirmation of uHTS hits for small molecule antagonists of the CRF-binding protein and CRF-R2 receptor complex.; type: functional; conditions: read-out: IC50_Mean
T4 sequence (Q13324 whole entry): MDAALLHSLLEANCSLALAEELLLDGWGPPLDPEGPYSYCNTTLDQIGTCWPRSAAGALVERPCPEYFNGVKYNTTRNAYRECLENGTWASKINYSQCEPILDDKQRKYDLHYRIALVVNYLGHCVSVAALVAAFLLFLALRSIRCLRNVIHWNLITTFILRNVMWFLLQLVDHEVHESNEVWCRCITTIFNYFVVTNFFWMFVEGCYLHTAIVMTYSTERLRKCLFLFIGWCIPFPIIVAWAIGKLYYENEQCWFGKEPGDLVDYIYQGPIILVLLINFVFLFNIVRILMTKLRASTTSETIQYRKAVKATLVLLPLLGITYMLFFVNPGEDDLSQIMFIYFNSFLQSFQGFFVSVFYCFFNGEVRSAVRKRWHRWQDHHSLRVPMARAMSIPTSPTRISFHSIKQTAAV
T4 sequence (P24387 whole entry): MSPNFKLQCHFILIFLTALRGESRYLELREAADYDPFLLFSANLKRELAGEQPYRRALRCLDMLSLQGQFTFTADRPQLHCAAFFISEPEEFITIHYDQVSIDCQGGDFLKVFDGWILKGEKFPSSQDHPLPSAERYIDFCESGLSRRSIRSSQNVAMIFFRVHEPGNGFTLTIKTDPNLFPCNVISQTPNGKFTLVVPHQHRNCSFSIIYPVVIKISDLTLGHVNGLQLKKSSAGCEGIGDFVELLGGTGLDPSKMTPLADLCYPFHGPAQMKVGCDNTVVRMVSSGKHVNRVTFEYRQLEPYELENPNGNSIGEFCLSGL

[12] = CRF-BP/CRF-R2 complex antagonists, dose response, cell-based, uHTS hits, 384-well (AID 651639); type: functional, Homo sapiens; conditions: read-out: IC50_Mean
[13] = target: T4, Corticotropin-releasing factor receptor 2/Corticotropin-releasing factor-binding protein; assay: activators of CRF receptor 2 with binding protein – uHTS hits, confirmation (AID 602473); type: functional; conditions: read-out: EC50_Mean
Cytochrome P450 2C9 = Cytochrome P450 2C9 (Homo sapiens, UniProt P11712)
Sequence of Cytochrome P450 2C9 (P11712 whole entry): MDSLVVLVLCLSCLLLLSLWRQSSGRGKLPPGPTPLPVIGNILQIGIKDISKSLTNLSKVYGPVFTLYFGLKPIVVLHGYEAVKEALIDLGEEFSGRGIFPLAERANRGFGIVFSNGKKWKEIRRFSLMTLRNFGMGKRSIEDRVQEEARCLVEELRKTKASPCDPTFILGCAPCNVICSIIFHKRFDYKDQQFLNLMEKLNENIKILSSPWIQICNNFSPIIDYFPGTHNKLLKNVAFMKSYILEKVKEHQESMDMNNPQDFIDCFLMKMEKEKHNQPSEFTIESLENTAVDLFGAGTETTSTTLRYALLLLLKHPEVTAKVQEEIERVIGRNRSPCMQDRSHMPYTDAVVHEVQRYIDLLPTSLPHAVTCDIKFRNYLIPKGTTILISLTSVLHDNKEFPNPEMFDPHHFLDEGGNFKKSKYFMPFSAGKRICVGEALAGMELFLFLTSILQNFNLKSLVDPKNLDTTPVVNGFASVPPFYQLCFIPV

CAAX prenyl protease 2 = target: T5, CAAX prenyl protease 2 (Homo sapiens, UniProt Q9Y256); assay: human Rce1 protease inhibitors, dose response, biochemical, yeast membranes, quenched-peptide fluorescence, cherry-pick (AID 588849)
T5 sequence (Q9Y256 whole entry): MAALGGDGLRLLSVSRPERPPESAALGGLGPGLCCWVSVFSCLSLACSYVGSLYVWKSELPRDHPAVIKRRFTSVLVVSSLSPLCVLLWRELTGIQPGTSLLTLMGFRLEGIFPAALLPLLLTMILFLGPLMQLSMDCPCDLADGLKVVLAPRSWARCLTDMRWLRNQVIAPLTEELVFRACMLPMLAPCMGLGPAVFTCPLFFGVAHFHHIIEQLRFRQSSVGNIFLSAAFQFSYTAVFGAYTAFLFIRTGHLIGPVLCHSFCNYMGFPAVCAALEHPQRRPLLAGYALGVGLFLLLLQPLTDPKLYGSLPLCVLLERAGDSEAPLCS

[14] = target: Low molecular weight phosphotyrosine protein phosphatase (Homo sapiens, UniProt P24666); type: functional; conditions: read-out: IC50_Mean;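 further: Dose-response confirmation assay measuring inhibition of LMPTP enzyme activity by fluorescence intensity read-out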
Sequence of Low molecular weight phosphotyrosine protein phosphatase (P24666 whole entry): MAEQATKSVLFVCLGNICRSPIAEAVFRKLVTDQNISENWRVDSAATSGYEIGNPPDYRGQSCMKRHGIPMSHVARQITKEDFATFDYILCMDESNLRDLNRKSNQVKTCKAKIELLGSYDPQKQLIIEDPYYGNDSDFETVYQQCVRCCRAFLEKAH

Beta-galactosidase = Beta-galactosidase (Escherichia coli, UniProt Q8VNN2); assay: Dose response counterscreen for EBI2 assay utilizing the enzyme, b-galactosidase.; type: functional
Sequence of Beta-galactosidase (Q8VNN2 whole entry): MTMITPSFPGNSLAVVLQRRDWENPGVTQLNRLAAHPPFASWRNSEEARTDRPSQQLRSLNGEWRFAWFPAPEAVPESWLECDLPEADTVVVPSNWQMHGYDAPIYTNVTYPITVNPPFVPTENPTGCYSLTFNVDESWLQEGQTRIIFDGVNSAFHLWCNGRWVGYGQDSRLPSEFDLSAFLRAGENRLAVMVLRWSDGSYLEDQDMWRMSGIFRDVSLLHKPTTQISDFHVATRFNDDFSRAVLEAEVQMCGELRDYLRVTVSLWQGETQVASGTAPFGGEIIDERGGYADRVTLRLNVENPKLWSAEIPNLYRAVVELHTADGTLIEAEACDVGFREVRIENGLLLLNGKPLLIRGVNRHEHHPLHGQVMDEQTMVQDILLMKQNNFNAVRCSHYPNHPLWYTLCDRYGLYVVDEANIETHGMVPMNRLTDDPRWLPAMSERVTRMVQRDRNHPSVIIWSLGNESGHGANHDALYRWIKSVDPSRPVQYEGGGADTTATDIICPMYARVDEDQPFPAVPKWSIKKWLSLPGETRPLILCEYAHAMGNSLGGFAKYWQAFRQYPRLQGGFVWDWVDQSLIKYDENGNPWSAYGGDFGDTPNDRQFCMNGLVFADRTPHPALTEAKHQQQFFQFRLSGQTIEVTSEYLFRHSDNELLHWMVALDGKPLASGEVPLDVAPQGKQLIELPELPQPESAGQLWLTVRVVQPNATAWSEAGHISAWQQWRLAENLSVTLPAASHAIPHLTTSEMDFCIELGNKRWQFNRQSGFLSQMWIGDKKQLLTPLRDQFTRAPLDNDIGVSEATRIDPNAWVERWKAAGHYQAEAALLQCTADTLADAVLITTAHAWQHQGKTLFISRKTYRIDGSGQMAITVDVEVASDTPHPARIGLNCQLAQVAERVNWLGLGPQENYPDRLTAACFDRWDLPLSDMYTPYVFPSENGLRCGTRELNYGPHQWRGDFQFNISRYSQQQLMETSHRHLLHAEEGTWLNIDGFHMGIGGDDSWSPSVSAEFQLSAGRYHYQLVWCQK

[15] = target: T6, Probable nicotinate-nucleotide adenylyltransferase (Staphylococcus aureus (strain N315), UniProt P65502); type: functional, Staphylococcus aureus subsp. aureus N315;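 on IC50 Mean: confirmatory dose-response retesting of NadD inhibitor hits first found in an ultra-high-throughput screen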
T6 sequence (P65502 whole entry): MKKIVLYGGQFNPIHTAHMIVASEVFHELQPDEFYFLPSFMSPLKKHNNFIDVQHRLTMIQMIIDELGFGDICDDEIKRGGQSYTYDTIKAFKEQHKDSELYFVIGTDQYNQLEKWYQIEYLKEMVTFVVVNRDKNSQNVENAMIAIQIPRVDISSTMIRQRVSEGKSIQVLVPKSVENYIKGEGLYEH

[16] = target: T6, Probable nicotinate-nucleotide adenylyltransferase; type: functional, Staphylococcus aureus subsp. aureus N315; conditions: read-out: IC50_Mean
Beta-lactamase [17] = target: Beta-lactamase (Pseudomonas aeruginosa, UniProt Q79MP6);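 further: biochemical dose-response test of metallo-beta-lactamase enzyme inhibition, read out by epi-absorbance; purified recombinant IMP-1 metallo-beta-lactamase with nitrocefin as substrate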
Sequence of Beta-lactamase (Pseudomonas aeruginosa, UniProt Q79MP6) (Q79MP6 whole entry): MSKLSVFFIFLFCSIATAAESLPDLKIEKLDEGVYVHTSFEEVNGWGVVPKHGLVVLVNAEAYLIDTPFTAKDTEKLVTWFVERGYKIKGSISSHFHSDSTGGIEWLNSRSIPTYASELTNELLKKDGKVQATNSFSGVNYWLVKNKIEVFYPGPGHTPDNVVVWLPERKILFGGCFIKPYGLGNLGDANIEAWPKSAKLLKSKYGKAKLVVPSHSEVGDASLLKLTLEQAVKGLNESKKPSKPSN

Beta-lactamase [18] = target: Beta-lactamase (Salmonella choleraesuis (strain SC-B67), UniProt Q5J463)
Sequence of Beta-lactamase (Salmonella choleraesuis (strain SC-B67), UniProt Q5J463) (Q5J463 whole entry): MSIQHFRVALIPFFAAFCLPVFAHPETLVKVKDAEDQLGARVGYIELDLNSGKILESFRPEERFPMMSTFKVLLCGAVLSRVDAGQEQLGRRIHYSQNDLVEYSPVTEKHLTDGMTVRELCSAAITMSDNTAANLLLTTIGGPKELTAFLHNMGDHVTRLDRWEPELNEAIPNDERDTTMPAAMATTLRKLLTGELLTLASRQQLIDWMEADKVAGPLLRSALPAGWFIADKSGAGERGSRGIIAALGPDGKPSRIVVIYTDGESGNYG

[19] = cytotoxicity toward NIH3T3 fibroblasts, dose response, counter-screen, cell-based, ATP luminescence, mouse fibroblasts (AID 2010); type: functional;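 further: cells exposed to compound for about 90 hours before reading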
[20] = target: Glucose-6-phosphate 1-dehydrogenase (Homo sapiens, UniProt P11413); assay: human G6PD enzyme inhibitors, dose response, selectivity assay for P. falciparum G6PD inhibitor project, biochemical, fluorescence (AID 504792); type: functional
Sequence of Glucose-6-phosphate 1-dehydrogenase (P11413 whole entry): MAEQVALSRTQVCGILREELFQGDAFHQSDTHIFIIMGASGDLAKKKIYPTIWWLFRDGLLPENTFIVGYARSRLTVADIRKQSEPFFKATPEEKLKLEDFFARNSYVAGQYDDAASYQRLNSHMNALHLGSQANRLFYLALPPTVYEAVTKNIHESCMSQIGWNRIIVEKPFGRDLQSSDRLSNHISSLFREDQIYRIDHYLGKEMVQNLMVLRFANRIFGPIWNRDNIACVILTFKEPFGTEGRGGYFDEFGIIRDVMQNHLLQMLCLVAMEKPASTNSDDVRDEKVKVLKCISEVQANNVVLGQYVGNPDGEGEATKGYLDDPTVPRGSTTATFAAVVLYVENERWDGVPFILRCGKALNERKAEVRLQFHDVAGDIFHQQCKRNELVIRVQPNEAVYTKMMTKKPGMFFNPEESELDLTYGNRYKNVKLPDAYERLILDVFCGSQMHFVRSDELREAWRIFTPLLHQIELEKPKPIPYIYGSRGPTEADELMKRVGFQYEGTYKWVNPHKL

[21] = target: T7, Mitochondrial peptide methionine sulfoxide reductase (Bos taurus, UniProt P54149); assay: Absorbance-based biochemical high throughput dose response assay for activators of Methionine sulfoxide reductase A (MsrA).; type: functional
T7 sequence (P54149 whole entry): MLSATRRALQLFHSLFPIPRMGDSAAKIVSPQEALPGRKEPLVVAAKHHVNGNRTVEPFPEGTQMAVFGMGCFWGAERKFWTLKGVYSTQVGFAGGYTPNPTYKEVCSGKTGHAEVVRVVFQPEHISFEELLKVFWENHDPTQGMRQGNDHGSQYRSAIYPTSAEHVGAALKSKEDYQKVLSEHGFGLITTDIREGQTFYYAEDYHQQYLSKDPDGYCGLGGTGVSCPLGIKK

[22] = growth suppression of PTEN-null colon cells, dose response, cell-based, HCT116 PTEN knockout (AID 1047); type: functional;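 further: HCT116 colon tumor cells with PTEN knocked out; cells exposed to compound for 60 hours before readout; potency for loss of cell viability measured by luminescence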
[23] = inhibitors of intracellular T. cruzi replication, confirmation, NIH3T3 host cells, beta-gal luminescence (AID 2044); type: functional, cell-based;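 further: intracellular parasites grown in NIH/3T3 mouse fibroblasts as host cells; luminescent beta-galactosidase reporter signal from transgenic T. cruzi replicating inside host cells; inhibitors lower the luminescence signal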
[24] = target: FAD-linked sulfhydryl oxidase ALR (Homo sapiens, UniProt P55789); assay: inhibitors of human ALR sulfhydryl oxidase, dose response, biochemical, H2O2 detection, luminescence, cherry-pick (AID 493248)
Sequence of FAD-linked sulfhydryl oxidase ALR (P55789 whole entry): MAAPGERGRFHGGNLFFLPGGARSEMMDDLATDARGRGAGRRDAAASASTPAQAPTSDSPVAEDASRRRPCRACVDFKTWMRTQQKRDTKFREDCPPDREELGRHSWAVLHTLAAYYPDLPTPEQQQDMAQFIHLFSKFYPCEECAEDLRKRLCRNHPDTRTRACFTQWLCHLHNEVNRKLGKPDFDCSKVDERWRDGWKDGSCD

Vero = assay: cells; type: functional; conditions: Chlorocebus sabaeus
[25] = growth suppression of beta-catenin-knockout colon cells, dose response, cell-based, HCT116, human colon tumor (AID 1045); type: functional;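 further: HCT116 colon tumor cells with beta catenin knocked out; cells exposed to compound for 60 hours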
[26] = nonselective inhibitors of cellular cAMP signaling, dose response, counter-screen for MC4R biased antagonist project, cell-based, TR-FRET cAMP detection (AID 602305); type: functional;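 further: U2OS cells stimulated with forskolin near its EC80 as the cAMP inducer; potency is for inhibition of forskolin-stimulated cAMP signaling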
[27] = Luminescence Cell-Based Dose Retest to Confirm Inhibitors of Cancer Stem Cells. [Related pubchem assays (depositor defined):AID2717, AID2721]; type: functional; conditions: Homo sapiens
Melanocortin receptor 4 [28] = target: T8, Melanocortin receptor 4 (Homo sapiens, UniProt P32245); type: functional, cell-based;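 further: Cell-based assay with luminescence read-out, confirmatory dose-response testing for agonist activity of biased ligands at MC4R; human U2OS cells with tagged receptor and beta-arrestin; potency of agonists that increase receptor coupling to beta-arrestin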
T8 sequence (P32245 whole entry): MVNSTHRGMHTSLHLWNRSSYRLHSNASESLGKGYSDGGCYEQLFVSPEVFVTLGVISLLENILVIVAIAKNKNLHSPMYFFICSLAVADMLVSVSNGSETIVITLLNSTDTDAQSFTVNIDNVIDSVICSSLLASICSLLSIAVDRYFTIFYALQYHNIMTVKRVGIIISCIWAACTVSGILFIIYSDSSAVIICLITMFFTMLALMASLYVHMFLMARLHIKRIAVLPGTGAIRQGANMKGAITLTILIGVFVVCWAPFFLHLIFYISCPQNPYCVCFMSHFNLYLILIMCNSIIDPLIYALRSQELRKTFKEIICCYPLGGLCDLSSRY

[29] = A549 cell cytotoxicity, dose response, cytotoxicity control, plate reader, cherry-pick, antagonist series (AID 743412); type: functional, cell-based
Melanocortin receptor 4 [30] = target: T8, Melanocortin receptor 4; assay: MC4R antagonist potency on cAMP, dose response, cell-based, TR-FRET, biased antagonists (AID 602298); type: functional;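 further: antagonist potency against agonist-stimulated cAMP production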
[31] = LGR2 antagonists, dose response, cell-based, HEK293, CRE-luciferase reporter, cherry pick, set 2 (AID 743343); type: functional;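 further: transfected cells were stimulated with diluted bursicon conditioned medium after compound addition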
[32] = HEK293 cell cytotoxicity, dose response, cytotoxicity control, plate reader, cherry-picked samples (AID 743446); type: functional, cell-based
[33] = MC4R antagonists, dose response, counter-screen for LGR2 antagonist project, cell-based, plate reader, cherry pick (AID 743444); type: functional;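 further: transfected HEK 293 cells stimulated with alpha-MSH peptide; potency of inhibitors of the alpha-MSH evoked signal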

Compound: C#Cc1ccc([C@@H]2C=C(C(=O)NCc3nc4ccccc4[nH]3)O[C@H](OCC)[C@H]2CCCO)cc1
- IC50 [1]: 8.94 µM (active)
- IC50 [2]: 22.3 µM (inactive)
- IC50 [3]: 35.8 µM (inactive)

Compound: Cc1ccc(C(=O)NCCN2C3=NC[C@@H](Cc4ccccc4)N3C[C@H]2Cc2ccc(O)cc2)cc1Br
- IC50 [4]: 19.4 µM (active)
- IC50 (Bcl-2-related protein A1): > 20 µM (inactive)
- IC50 [5]: > 20 µM (inactive)
- AC50 [6]: 19.2 µM (active)

Compound: C[C@H](CO)N1C[C@H](C)[C@H](CN(C)S(=O)(=O)c2ccccc2)Oc2ccc(NC(=O)Nc3cccc4ccccc34)cc2CC1=O
- AC50 [7]: 31.7 µM (active)
- AC50 [8]: < 0.26 µM (active)
- AC50 [9]: 0.685 µM (active)
- AC50 [10]: < 0.26 µM (active)

Compound: CSc1nnc(-c2sc(-c3ccccc3)nc2C)n1C
- IC50 [11]: < 0.368 µM (active)
- IC50 [12]: > 20 µM (inactive)
- EC50 [13]: > 53 µM (inactive)
- AC50 (Cytochrome P450 2C9): 0.0708 µM (inconclusive)
- AC50 (CAAX prenyl protease 2): > 100 µM (inactive)

Compound: O=C(COC(=O)c1ccc(Br)o1)Nc1nc2c(F)c(F)c(F)cc2s1
- IC50 [14]: 12.7 µM (active)

Compound: O=C(/C=C/c1ccccc1)N1CCN(c2ccccn2)CC1
- IC50 (Beta-galactosidase): > 80 µM (inactive)

Compound: COc1ccccc1N1CCN(C(=O)c2cc3cc(C)ccc3[nH]2)CC1
- IC50 (Beta-galactosidase): > 80 µM (inactive)

Compound: CCn1cc(/C=N/NC(=O)c2cc3c(ccc4ccccc43)o2)c2ccccc21
- IC50 [15]: 40.7 µM (active)
- IC50 [16]: 80 µM (inactive)

Compound: COCCCn1/c(=N/C(=O)c2ccccc2)c(C#N)cc2c(=O)n3cccc(C)c3nc21
- IC50 (Beta-lactamase [17]): > 59.6 µM (inactive)
- IC50 (Beta-lactamase [18]): > 59.6 µM (inactive)

Compound: O=c1ccsn1Cc1ccccc1
- EC50 [19]: 37.5 µM (active)
- IC50 [20]: 75.6 µM (inactive)
- EC50 [21]: > 104 µM (inactive)
- EC50 [22]: 13 µM (active)
- EC50 [23]: 1.1 µM (active)
- AC50 [24]: < 0.005 µM (active)
- CC50 (Vero): > 25 µM (active)
- EC50 [25]: 12.5 µM (active)

Compound: CCCCNc1c(-c2cccc(-c3cc(C(C)=O)cs3)c2)nc2ccc(C)cn12
- IC50 [26]: > 64.6 µM (inactive)
- AC50 [27]: 4.47 µM (active)
- EC50 (Melanocortin receptor 4 [28]): > 89.2 µM (inactive)
- AC50 [29]: > 52 µM (inactive)
- IC50 (Melanocortin receptor 4 [30]): > 64.6 µM (inactive)
- AC50 [31]: 11.4 µM (active)
- AC50 [32]: > 52 µM (inactive)
- AC50 [33]: 14.5 µM (active)
